In publication PMC7464492, “Cisplatin Decreases ENaC Activity Contributing to Renal Salt Wasting Syndrome” (Cancers, 2020):

Molecular target: T1, epithelial Na+ channel (mENaC; α-, β- and γ-mouse ENaC subunits) (Mus musculus, UniProt Q61180+Q9WU38+Q9WU39)
T1 construct: gene Scnn1a; α-, β- and γ-mouse ENaC subunits genetically linked to NH2-terminal eCFP, expressed in CHO cells; with β- and γ-ENaC subunits (Scnn1b, Scnn1g)
T1 sequence (Q61180 1-699): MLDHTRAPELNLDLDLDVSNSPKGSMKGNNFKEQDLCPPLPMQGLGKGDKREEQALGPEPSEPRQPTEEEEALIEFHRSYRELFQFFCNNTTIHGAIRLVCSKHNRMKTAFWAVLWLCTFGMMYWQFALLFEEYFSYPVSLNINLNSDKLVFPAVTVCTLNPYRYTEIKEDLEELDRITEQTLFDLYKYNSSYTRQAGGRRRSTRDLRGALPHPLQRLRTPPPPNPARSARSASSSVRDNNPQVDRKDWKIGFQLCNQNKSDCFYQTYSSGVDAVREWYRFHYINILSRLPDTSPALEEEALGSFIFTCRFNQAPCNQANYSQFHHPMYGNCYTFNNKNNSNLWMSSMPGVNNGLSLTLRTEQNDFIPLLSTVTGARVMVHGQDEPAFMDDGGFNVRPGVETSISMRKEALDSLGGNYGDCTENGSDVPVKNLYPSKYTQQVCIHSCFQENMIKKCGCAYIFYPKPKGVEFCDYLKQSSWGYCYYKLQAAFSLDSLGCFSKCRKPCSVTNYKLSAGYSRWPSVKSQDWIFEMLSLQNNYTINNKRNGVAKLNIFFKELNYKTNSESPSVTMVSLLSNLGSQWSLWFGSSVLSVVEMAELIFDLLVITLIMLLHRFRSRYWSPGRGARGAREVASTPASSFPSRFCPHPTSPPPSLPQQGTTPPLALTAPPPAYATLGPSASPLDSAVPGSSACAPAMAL
T1 sequence (Q9WU38 1-638): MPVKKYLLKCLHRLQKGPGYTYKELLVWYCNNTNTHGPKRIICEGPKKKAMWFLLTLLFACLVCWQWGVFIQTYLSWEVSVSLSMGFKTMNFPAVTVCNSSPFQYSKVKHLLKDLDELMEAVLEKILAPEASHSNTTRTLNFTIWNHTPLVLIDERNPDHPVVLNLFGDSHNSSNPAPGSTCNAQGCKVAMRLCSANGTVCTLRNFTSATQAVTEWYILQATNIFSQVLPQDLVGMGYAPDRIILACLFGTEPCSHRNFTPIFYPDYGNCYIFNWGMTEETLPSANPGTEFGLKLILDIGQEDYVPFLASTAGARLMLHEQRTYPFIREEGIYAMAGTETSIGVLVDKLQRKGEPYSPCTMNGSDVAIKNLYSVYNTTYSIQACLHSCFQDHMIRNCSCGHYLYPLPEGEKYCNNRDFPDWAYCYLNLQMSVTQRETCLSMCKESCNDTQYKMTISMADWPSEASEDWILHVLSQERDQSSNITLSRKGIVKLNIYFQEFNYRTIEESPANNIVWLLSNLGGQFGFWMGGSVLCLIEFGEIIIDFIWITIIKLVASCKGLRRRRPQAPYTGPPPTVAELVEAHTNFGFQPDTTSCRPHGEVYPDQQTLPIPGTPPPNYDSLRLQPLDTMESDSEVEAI
T1 sequence (Q9WU39 1-655): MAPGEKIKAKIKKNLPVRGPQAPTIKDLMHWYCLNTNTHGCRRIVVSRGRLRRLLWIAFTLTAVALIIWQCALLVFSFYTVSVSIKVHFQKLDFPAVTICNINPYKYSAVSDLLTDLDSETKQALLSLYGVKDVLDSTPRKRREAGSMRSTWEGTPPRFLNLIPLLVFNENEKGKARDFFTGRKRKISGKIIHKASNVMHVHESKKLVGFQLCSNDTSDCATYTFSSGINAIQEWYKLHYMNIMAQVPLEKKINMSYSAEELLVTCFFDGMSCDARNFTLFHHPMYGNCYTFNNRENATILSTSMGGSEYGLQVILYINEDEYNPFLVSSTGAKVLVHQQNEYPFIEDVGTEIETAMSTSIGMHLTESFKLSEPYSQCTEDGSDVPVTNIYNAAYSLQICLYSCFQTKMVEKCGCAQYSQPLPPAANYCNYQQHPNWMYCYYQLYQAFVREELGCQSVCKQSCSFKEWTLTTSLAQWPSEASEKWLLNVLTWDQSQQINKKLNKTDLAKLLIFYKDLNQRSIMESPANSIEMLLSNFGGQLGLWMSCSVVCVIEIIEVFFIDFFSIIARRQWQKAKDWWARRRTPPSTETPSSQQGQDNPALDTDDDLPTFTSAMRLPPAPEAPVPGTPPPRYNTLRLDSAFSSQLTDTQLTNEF
Assay: whole-cell patch clamp dose-response and competition with amiloride in CHO cells (partial inhibitor, Emax […]); direct action inferred, secondary effects not excluded
Type: cell-based

Question: `[NH2][Pt]([NH2])([Cl])[Cl]` [CDDP, cis-diamminedichloroplatinum (II)] was tested. Which IC50 did it give?
Answer: Its IC50 is 1000 ± 180 nM.
